The values below come from patent publication US20140206629A1, “Stromal Derived Factor Inhibition And CXCR4 Blockade” (RHODE ISLAND HOSPITAL, priority 2011, published 2014).

In assay [1] the test system is IL-1β induced SDF-1 expression in human subacromial bursal cells. The assay can be described thus: SDF-1α protein (ELISA) in supernatants of IL-1β-treated cultured bursal cells with inhibitors. It counts as cell-based. The following applies: bursal cells treated with IL-1β 20 ng/mL plus inhibitor. Here is the method: (§1) Human subacromial bursal biopsy specimens were obtained as above. Tissues were washed with Hank's balanced salt solution (Gibco), minced with scissors, and resuspended in Dulbecco's minimum essential medium (DMEM, Gibco) containing 1 mg/ml collagenase, 0.15 mg/ml DNase, and 0.15 mg/ml hyaluronidase. The tissue was enzymatically digested for 2 hours at 37° C. and then passed through sterile gauze to remove any undigested fragments. Cells were seeded in 75 cm2 flasks with DMEM supplemented with 10% fetal bovine serum (FBS), 100 U/ml penicillin, 100 μg/ml streptomycin, and 0.1% fungizone (amphotericin B) and grown at 37° C. in a humidified atmosphere of 5% CO2 and 95% air. Subcultures were performed with Trypsin-EDTA treatment (Gibco).
Subacromial bursal cells were cultured as above. After the first passage, cells were plated into 6-well plates and grown to 85% confluence. Wells were then treated (in triplicate) with IL-1β 20 ng/mL and respective inhibitors (AMD3100, T140 analog, dexamethasone or NSAID). After 24 hours, supernatants were collected and assayed for SDF-1α expression using Quantikineâ Human SDF-1α enzyme immunoassay kit (R & D System) according to the manufacturer's instructions. Standard curves were reconstituted using SDF-1α protein. The optical density of each well was determined using a microplate reader set to 450 nm wavelength. […]
In general terms: An ELISA detects its analyte on a solid surface through an enzyme-linked reagent.

Assay [2] concerns IL-1β induced SDF-1 mRNA expression in human subacromial bursal cells. The assay can be described thus: SDF-1α mRNA (RT-PCR) in IL-1β-treated cultured bursal cells with inhibitors. It counts as cell-based. The following applies: bursal cells treated with IL-1β plus inhibitor.
Method: Subacromial bursal cells were cultured as above. First-passaged cells were treated with IL-1β and respective inhibitors as above. Total RNA was isolated using Qiagen RNeasy Mini Kit (Qiagen, Valencia, Calif.). First-strand cDNA was synthesized using 1 μg of total RNA and Superscript III™ First-Strand Synthesis System (Invitrogen). […] All PCR were performed in 25-μl reactions on a DNA Engine Opticon™ 2 Detection System (MJ Research, Hercules, Calif.) for 40 cycles in which each cycles consisted of 15 sec at 95° C., 15 sec at 60° C., and 20 sec at 72° C. Results were standardized to GAPDH housekeeping gene. Statistical analysis was performed using the student's t-test. […]
In assay [3] the test system is human subacromial bursal cells. The assay can be described thus: Cell migration assay of bursal cells in response to SDF-1 stimulation. The format is cell-based. The following applies: in the presence of CXCR4 inhibitor. From the text:
FIG. 6 is a bar graph showing cell migration assay of human subacromial bursal cells in the presence of CXCR4 inhibitors AMD3100 and T140.

The subject of assay [4] is rat rotator cuff tendons.
From the text: 58 male Lewis rat shoulders underwent surgery using an IACUC approved protocol. The infraspinatus tendon was transected at its insertion to create a tendon defect (FIG. 7). […] Animals were sacrificed at 3, 7, 14, 28 or 42 days. Eight uninjured rat shoulders were used as controls. Preconditioned for 5 cycles to 0.38 mm displacement in tension at a rate of 0.1 mm/s Stress relaxation test for 300 s duration at 0.38 displacement in tension Return to 0.2 N tension followed by a 300 s latency period Tension to failure at a displacement rate of 0.1 mm/s
The target of assay [5] is CCR5 (Homo sapiens, UniProt P51681). The note with it: cited from earlier work.
Assay [6] relates to human subacromial bursal cells. The assay can be described thus: Cytokine stimulation of SDF-1α protein production in cultured bursal cells (ELISA). It counts as cell-based. How it is done:
as §1
SDF-1 expression was induced by stimulating bursal cells with IL-1β. SDF-1 levels were measured in cell supernatants and mRNA levels were tested using real-time RT-PCR at various time points. SDF-1 expression increased with time and occurred in a dose-dependent fashion. […] (FIG. 3) These experiments were reproducible with cells grown from several different tissue samples.
(§2) Subacromial bursa specimens were obtained from patients undergoing shoulder surgery. […] Early-passaged cells were then treated with cytokines ([…] and IL-6) and SDF-1α expression was measured by ELISA and RT-PCR.

The subject of assay [7] is human subacromial bursal cells. Kind of assay: Cytokine stimulation of SDF-1α mRNA expression in cultured bursal cells (RT-PCR). The format is cell-based. The following applies: cytokine-treated bursal cells vs controls; maximal at 24 hours. Here is the method:
as §1
Subacromial bursal cells were cultured as above. […] SDF-1 mRNA was quantified with SDF-1 specific primers SDF-1FOR (5′-GATTGTAGCCCGGCT GAAGAA-3′) (SEQ ID NO: 11) and SDF-1BACK (5′-[…]-3′) (SEQ ID NO: 12). […]
SDF-1 expression was induced by stimulating bursal cells with IL-1β. SDF-1 levels were measured in cell supernatants and mRNA levels were tested using real-time RT-PCR at various time points. […]
as §2

Entries after “also recorded” stand apart in the source; their conditions may differ.

Sequence of CCR5 (P51681 whole entry): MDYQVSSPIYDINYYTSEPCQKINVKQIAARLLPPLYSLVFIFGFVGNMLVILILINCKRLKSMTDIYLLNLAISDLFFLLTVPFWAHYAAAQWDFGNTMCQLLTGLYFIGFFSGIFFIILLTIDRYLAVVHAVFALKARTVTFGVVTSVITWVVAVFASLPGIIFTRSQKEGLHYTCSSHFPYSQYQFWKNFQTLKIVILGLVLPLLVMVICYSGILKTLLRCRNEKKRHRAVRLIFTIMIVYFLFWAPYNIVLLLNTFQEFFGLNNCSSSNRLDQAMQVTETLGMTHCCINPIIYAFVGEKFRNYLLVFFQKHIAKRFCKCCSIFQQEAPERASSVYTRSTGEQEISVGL

`c1cc(CN2CCCNCCNCCCNCC2)ccc1CN1CCCNCCNCCCNCC1` [AMD3100, 1,1′-[1,4-phenylenebis(methylene)]-bis-1,4,8,11-azatetradecane]: the “decrease of SDF-1α protein production/expression in supernatants” value in assay [1] turned out to be 40%. Further, the “SDF-1α mRNA expression” value in assay [2] was “only a slight decrease”. For the same molecule, in assay [3], the “bursal cell migration in response to SDF-1 stimulation” value is “decreased”. Besides, in assay [4] (rat shoulder with experimentally induced rotator cuff injury), the “inflammation in the subacromial bursa” value is recorded as “reduced inflammation”. The “maximum load in the infraspinatus bone-tendon complex compared to controls (PBS)” value in assay [4] (rat, osmotic minipump, 3, 7, 14, 28 or 42 days post injury) is reported as “No statistically significant differences”. The “binding to chemokine receptor CCR5” value in assay [5] is reported as “does not bind”.
Regarding `C[C@@H]1C[C@H]2[C@@H]3CCC4=CC(=O)C=C[C@]4(C)[C@@]3(F)[C@@H](O)C[C@]2(C)[C@@]1(O)C(=O)CO` [dexamethasone], the “decrease of SDF-1α protein production/expression in supernatants” value in assay [1] is reported as 87%.
As for IL-1β, the “increase in SDF-1α protein production/expression” value in assay [6] (cytokine-treated bursal cells) is listed as “more than five-fold increase”. For the same molecule, in assay [6] (exposure to 20 ng/ml IL-1β), the “SDF-1α production, maximal stimulation” value turned out to be 630 pg/10^4 cells. Moreover, the “increase in SDF-1α gene (mRNA) expression” value in assay [7] is “nearly five-fold increase; also recorded: more than five-fold increase”.
